“Also recorded” adds a separate entry of the source.
Key:
[1] = Brain infarct size after MCAO; type: in vivo, mice; conditions: post-ischemic mice, single dose of α-GalCer (FIG. 45A)
[2] = Lung injury assessment (MPO activity, lung edema); type: in vivo; conditions: post-ischemic mice 24 h after MCAO
Experimental: The lungs of anaesthetized mice were removed after specified period of reperfusion. For determination of lung myeloperoxidase (MPO) activity (an indicator of lung inflammation), samples of lungs were removed, weighed, immediately frozen in liquid nitrogen and stored at −80° C. until the MPO activity assay was performed. Myeloperoxidase activity was measured using an assay previously described (Krawisz et al., 1984) and modified to be used in a 96-well microtitre plate. Values are expressed as units of MPO activity per milligram of lung tissue (U/mg tissue). For determination of lung fluid content, the left lobes were dissected gently dried using a blotting paper, and weighed. The tissues were dried at 55° C. for 72 h and reweighed. The percentage of lung weight attributed to fluid was calculated as an indicator of lung edema formation.
The lung tissues were removed at 24 h post-MCAO and assessed for: (i) myeloperoxidase activity as a measure of neutrophil infiltration, and (ii) for lung edema.

[3] = test system: post-stroke infections; assay: Bacteriological analysis (CFU) of blood, lungs, liver and spleen after MCAO; type: in vivo, mice; conditions: post-ischemic mice 24 h after MCAO; α-GalCer 2 μg/mouse i.v. 2 h after MCAO (FIGS. 44A-44D)
Experimental: Mice underwent the mid-cerebral artery occlusion (MCAO) model of cerebral ischemia-reperfusion injury as previously described (Connolly, Jr. et al., 1996; Wong et al., 2008). Male mice of 8-12 weeks old were anesthetized by intraperitoneal injection of a mixture of 10 mg/kg xylazine hydrochloride (MTC Pharmaceuticals, Cambridge, ON) and 200 mg/kg ketamine hydrochloride (Rogar/STB, London, ON). Body temperature was maintained at 37° C. using a heating pad and temperature regulator with rectal probe. Mice were randomly divided into 2 groups: (i) sham-operated, and (ii) MCAO-operated. All surgical instruments were sterilized before the surgery. Before any incision, the area was swabbed with ethanol. To induce MCAO, a 10-mm incision was made on the right-hand side of the neck. Then, the common carotid artery, external carotid artery, and internal carotid artery were dissected free. The external carotid artery was further dissected distally, then coagulated and cut to serve as a stump. After applying temporary clamps at the common carotid artery and internal carotid artery, a monofilament with a silicon coating diameter of 0.21-0.23 mm (Doccol Corporation, Redlands, Calif., USA) was inserted into the stump of the external carotid artery. The monofilament then advanced a defined distance (12 mm) so that the distal end of the monofilament came to rest across the origin of the MCA. The stump of external carotid artery was tied off. The wound on the neck of the mouse was sutured and the mouse was then transferred onto a heat pad to maintain its body temperature at 37° C. After 30 mins of occlusion, the monofilament was withdrawn to allow reperfusion to occur. The animal then recovered from the anaesthesia. Rehydration of the mice was performed every 4 h with a subcutaneous injection of electrolytes and glucose. Food pellets softened with water were placed in the cage after surgery as the mice recovered, and access to water was provided. Sham-operated animals were subjected to the initial anaesthetic and neck incision only. The animals were then allowed to recover from anaesthetic. All animals were put onto a 37° C. heat pad, post-surgery, to recover from anaesthesia until euthanized.
(§1) The anaesthetized mice from Example 1 were washed with 70% ethanol under sterile conditions. Blood was collected by cardiac puncture. The lungs, liver and spleen were removed after thoracotomy and homogenized. For determination of colony forming units (CFU), 10 μl of tissue homogenate or blood was serially diluted, plated onto brain heart infusion (BHI) agar plates supplemented with 5% sheep blood (Daylnn Biologicals, Alberta, Canada), incubated at 37° C. for 18 h, and bacterial colonies were counted.
as §1, with “Example 7” for “Example 1”

[4] = test system: tumors; conditions: cited from earlier work
[5] = Alanine transaminase (ALT) activity assay in peripheral blood; type: in vivo; conditions: post-ischemic mice after the single dose of α-GalCer (FIG. 45B)
Experimental: Separate groups of control sham-operated mice received a single-dose administration of the α-GalCer compositions following the procedures, both as outlined in Example 7 (one composition/one group of four mice). Also, separate groups of post-ischemic mice received a single-dose administration of the α-GalCer compositions about 2 h after the MCAO events, following the procedures as outlined in Example 7 (one composition/one group of four mice). All animals were euthenized 24 h after MCAO events, and their peripheral blood was harvested. The levels of alanine transaminase (ALT) in the samples were determined with an ALT activity assay following the manufacturer's instructions to determine the rates of oxidation of NADH to NAD^+.

## CCCCCCCCCCCCCCCCCCCCCCCCCCC(=O)N[C@@H](COC1OC(CO)C(O)C(O)C1O)[C@H](O)[C@H](O)CCCCCCCCCCCCCC (stereo partly drawn) [α-GalCer, α-galactosylceramide]
[1]
  infarct sizes: no notable differences
[2]; 2 μg/mouse i.v. 2 h after MCAO (FIG. 43B)
  stroke-induced neutrophil pulmonary influx (MPO activity in lung): reduced
[2]; 2 μg/mouse i.v. 2 h after MCAO (FIG. 43C)
  lung edema: reduced
[3]
  infections (bacterial loads in peripheral blood, lungs, livers, spleens): reduced; also recorded: suppressed the occurrence of microbial infections
[4]; liver metastatic models
  growth of tumors: suppressed
  survival term of the tumor-bearing mice: prolonged
[4]; murine in vivo experiments incl. subcutaneous implanted model and liver and lung metastatic models
  anti-tumor activity: potent anti-tumor activity
[5]
  liver enzyme (ALT) levels within the blood: no significant difference

From patent US20140329766A1, “Prophylactic Compositions for Management of Microbial Infections in Patients with Brain Injury” (UTI LIMITED PARTNERSHIP, priority 2011, published 2014)
